# Test results published in US9901079B2, “Inhibition of oncogenic kras-induced GM-CSF production and function” (New York University, priority 2011, dated 2018).
# System: GM-CSF expression in Kras^G12D-PDEC
# Assay: GM-CSF mRNA expression in GFP-Kras^G12D-PDEC after pathway inhibitor treatment (quantitative RT-PCR)
# Format: cell-based, mouse
# Details: 24 hour treatment; U0126 2 μM, LY294002 10 μM (FIG. 3B)
# Text: Data are presented as an average fold induction over values from GFP-WT-PDEC or normal pancreata. Error bars indicate SD (n=3). […] Error bars indicate SD (n=3). […] Data are presented as an average fold induction over values from normal pancreatic tissue. Error bars indicate SD (n=3). FIG. 3D are photomicrographs showing immunohistochemical staining for GM-CSF protein in representative samples of human pancreatic cancer containing PanIN lesions (i-normal duct from adjacent non-malignant tissue; ii-iii PanIN lesions; iv-invasive PDA). White arrowheads indicate pancreatic duct (i), PanIN (ii and iii), and PDA (iv). Scale bars=50 μm. Extraction and reverse transcription of total RNA from PDECs was performed using RNeasy mini kit (QIAGEN) and QuantiTect reverse transcription kit (QIAGEN), respectively. SYBR Green PCR Master Mix (USB) was used for amplification and the samples were run on the Stratagene Mx 3005P. Expression levels were normalized by GAPDH.
structure (smiles),measurement,value
N#CC(=C(/N)Sc1ccccc1N)/C(C#N)=C(\N)Sc1ccccc1N [U0126],GM-CSF expression in Kras^G12D-PDEC,abrogation of GM-CSF expression
